Results from patent US20090317838A1, “DETECTION OF BACTERIAL PEPTIDOGLYCAN-LIKE COMPOUNDS” (priority 2008, published 2009).

Experiments:
[1] = target: T1, NOD2 (Homo sapiens, UniProt Q9HC29); assay: NF-κB-luciferase reporter assay in HEK293T cells transfected with NOD2; type: cell-based; conditions: for response of NOD2-transfected cells to inflammatory cytokines: acts via endogenous receptors, compared with fsNOD2 cells
T1 construct: host or cells: HEK293T
Description: Human embryonic kidney HEK293T cells (American Type Culture Collection (“ATCC,”) Manassas, Va., USA) were cultured in Dulbecco's modified Eagle's medium (Invitrogen, Carlsbad, Calif., USA) supplemented with 10% fetal calf serum (“FCS”) (PAA Laboratories GmbH, Pasching, Austria). HEK293T cells were seeded into 24 well cell culture plates at a density of 10^5 cells/ml (500 μl/well) and transfected with various expression plasmids, as previously described (Girardin 2003a) (FIG. 1).
(§1) Transfection was performed as described by Girardin et al., 2003a. HEK293T cells were transfected overnight using 1% FuGENE 6 transfection reagent (Roche Diagnostics, Mannheim, Germany) with 75 ng of the reporter plasmid pNF-kB-Luc (Stratagene, La Jolla, Calif. USA) and 1 ng p-UNO-hNODt (InvivoGen, San Diego, Calif. USA) or fsNOD2 expression plasmids (Begue et al. (2006); Chamaillard et al. (2003)). The plasmid pNF-κB-Luc is a 5.7 kb cis-reporting pNF-κB-Luc plasmid comprising an NF-κB enhancer region and a firefly luciferase gene controlled by a synthetic promoter that contains direct repeats of the transcription recognition sequences for the binding sites for NF-κB (Stratagene, Carlsbad, Calif., USA). The NOD2 3020InsC frameshift mutation was introduced using the QuikChange XL site-directed mutagenesis kit (Stratagene, Carlsbad, Calif., USA). The entire coding region was verified by sequencing and the size of the encoded product was verified by immunoblotting (Girardin et al., 2003b). A total plasmid concentration of 250 ng was achieved by addition of pcDNA3.1 vector.
Following a twenty hour transfection period, 50 μl of plasma was added into the wells containing the transfected cells. Purified peptidoglycan, diluted in plasma, from S. aureus (Sigma, St. Louis, Mo., USA) and E. coli (kind gift of Dominique Mengin-Lecreulx or InviroGen, San Diego, Calif., USA) served as positive controls. After six hours of peptidoglycan stimulation, the cell supernatant was removed and the cells were lysed with 100 μl of lysis buffer (25 mM Tris-phosphate pH 8, 8 mM MgCl2, 1 mM dithiothreitol, 15% glycerol, and 1% Triton X-100). Luciferase expression was measured from a 10 μl aliquot of cell extract using a microplate luminometer (LB960 luminometer centro, Berthold Technologies, Bad Wildbad, Germany) after addition of 100 μl of substrate buffer to a final concentration of 1.8 mM luciferin and 1 mM ATP. Each measurement was performed in triplicate. The detection level of the assay is at least 0.15 ug/ml PGN, determined by adding purified PGN to healthy donor plasma.
To validate the experimental system, NF-κB activation in HEK293T cells co-transfected with pNF-κB-Luc and pUNO-hNOD2 was tested in response to stimulation with both MPD and PGN derived from S. aureus (FIG. 2). […]

[2] = target: T2, NOD2 3020InsC frameshift mutant (fsNOD2) (Homo sapiens, UniProt Q9HC29, L1007P); assay: NF-κB-luciferase reporter assay in HEK293T cells transfected with frameshift NOD2 (fsNOD2); type: cell-based; conditions: HEK293T co-transfected with pNF-κB-Luc and NOD2 3020InsC
T2 construct: expressed in transfected cells; host or cells: HEK293T
Description: as §1
The NOD2 3020InsC variant comprises a Leu1007-Pro substitution in the tenth leucine-rich region followed by a premature stop codon. It activates the NF-κB pathway to the same extent as wild-type NOD2 when overexpressed, but is unable to detect MDP or PGN (Girardin et al., 2003b).
The specificity of the system was checked by transfecting an expression plasmid for frameshift NOD2 (fsNOD2), a mutant unable to activate NF-κB in response to MDP (FIG. 11E).

T1 sequence (Q9HC29 whole entry): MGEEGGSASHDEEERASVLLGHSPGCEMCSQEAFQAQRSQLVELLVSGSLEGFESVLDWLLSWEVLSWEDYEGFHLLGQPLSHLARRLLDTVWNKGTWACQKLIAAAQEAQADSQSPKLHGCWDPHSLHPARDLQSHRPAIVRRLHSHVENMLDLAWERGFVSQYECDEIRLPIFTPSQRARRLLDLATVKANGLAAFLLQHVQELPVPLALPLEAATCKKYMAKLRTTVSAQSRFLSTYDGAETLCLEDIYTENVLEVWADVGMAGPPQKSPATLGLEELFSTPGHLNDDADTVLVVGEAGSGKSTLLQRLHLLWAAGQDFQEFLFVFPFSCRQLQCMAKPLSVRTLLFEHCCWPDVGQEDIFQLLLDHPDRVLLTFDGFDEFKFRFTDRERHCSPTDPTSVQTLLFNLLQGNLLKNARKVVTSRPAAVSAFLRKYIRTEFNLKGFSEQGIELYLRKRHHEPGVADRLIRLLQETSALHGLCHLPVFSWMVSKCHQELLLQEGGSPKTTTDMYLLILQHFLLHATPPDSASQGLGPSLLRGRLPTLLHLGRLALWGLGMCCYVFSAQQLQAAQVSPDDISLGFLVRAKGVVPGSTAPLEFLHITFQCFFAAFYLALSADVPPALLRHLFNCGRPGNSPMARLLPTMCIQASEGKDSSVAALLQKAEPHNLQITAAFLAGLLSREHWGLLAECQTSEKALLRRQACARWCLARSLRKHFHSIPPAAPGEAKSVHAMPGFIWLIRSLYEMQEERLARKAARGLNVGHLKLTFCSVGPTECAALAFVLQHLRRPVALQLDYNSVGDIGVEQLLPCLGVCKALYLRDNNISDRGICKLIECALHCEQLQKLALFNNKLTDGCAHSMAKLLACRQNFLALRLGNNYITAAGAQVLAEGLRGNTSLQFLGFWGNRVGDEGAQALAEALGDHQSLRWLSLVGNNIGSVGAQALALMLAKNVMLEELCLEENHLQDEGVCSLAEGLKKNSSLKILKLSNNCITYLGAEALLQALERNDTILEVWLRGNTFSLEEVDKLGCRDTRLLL
T2 sequence (Q9HC29 1-1007 L1007P): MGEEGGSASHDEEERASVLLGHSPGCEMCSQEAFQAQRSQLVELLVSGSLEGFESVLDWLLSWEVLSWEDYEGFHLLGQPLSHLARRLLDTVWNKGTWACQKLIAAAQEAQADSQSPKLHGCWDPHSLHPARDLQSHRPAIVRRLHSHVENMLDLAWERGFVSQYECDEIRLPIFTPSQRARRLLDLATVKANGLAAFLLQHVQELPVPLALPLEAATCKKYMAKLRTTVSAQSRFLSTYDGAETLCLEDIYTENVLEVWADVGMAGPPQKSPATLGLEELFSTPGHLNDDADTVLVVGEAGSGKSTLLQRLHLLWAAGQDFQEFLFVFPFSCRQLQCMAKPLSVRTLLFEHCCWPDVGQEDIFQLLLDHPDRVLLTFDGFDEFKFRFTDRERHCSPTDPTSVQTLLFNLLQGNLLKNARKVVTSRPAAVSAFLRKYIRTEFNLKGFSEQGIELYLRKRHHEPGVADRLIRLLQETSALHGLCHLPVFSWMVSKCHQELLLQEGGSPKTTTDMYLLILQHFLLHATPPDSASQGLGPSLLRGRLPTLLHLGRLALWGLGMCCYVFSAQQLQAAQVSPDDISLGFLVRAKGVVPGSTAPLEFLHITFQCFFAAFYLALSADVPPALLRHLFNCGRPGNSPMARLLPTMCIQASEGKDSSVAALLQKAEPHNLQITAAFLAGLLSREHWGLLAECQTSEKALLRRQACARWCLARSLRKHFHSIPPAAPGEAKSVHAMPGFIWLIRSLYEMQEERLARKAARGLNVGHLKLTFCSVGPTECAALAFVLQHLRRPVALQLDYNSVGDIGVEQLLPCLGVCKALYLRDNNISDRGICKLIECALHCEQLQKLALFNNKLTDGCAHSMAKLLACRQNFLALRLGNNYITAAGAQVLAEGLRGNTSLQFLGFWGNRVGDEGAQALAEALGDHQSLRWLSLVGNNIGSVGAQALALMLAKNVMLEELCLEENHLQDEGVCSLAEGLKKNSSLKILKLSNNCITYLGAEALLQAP

Compound	NF-κB activation (luciferase expression) ([1]; 300 pM MDP, HEK293T co-transfected with pNF-κB-Luc and pUNO-hNOD2)	signal in NOD2 reporter system (luciferase, RLU) ([1]; 6 hours of incubation, without plasma)	luciferase / NF-κB response in fsNOD2-transfected cells [2]	response of NOD2-transfected cells to inflammatory cytokines [1]
CC(=O)N[C@H]1C(O)O[C@H](CO)[C@@H](O)[C@@H]1O[C@H](C)C(=O)N[C@@H](C)C(=O)N[C@H](CCC(=O)O)C(N)=O (mixture of isomers) [MDP, muramyl dipeptide]	induced NF-κB activation	positive signals	no increase in luciferase	–
interleukin 1β [IL-1β]	–	–	similarly responsive	similarly responsive
tumor necrosis factor-α [TNF-α]	–	–	similarly responsive	similarly responsive
